According to patent US20230157319A1, “SUPPLEMENTS AND COMPOSITIONS CONTAINING AMINO ACIDS AND IGF-1 AND METHODS OF USE” (PURETEIN BIOSCIENCE LLC, priority 2020, published 2023):

Test system: porcine satellite cells
Assay: myotube size of differentiated porcine satellite cells, 72 hour treatment
Type: cell-based
Details: for myotube size compared to the control treatment: each alone in DM: 5 ng/mL IGF-1, 4 mM L-glutamine, 10 mM L-lysine, 10 μM L-methionine, 72 hour, FIG. 1; for myotube size compared to the control treatment / myotube growth on addition to the combination: 1 mM L-leucine, 1 mM L-arginine; for useful inclusion (minimum amount required to produce the maximal growth response): titrated within the combination with 5 ng/mL active IGF-1, FIGS. 3-5; for myotube growth on addition to the combination: titrated 0.5-3 mM into 5 ng/mL IGF-1, 3 mM L-glutamine, FIGS. 6 and 7

Compound: insulin-like growth factor 1 [IGF-1]
- myotube size compared to the control treatment: increase the myotube size compared to the control treatment

Compound: N=C(N)NCCC[C@H](N)C(=O)O [L-arginine]
- myotube size compared to the control treatment: more profound growth response of myotubes
- useful inclusion (minimum amount required to produce the maximal growth response): 1 mM

Compound: CSCC[C@H](N)C(=O)O [L-methionine]
- myotube size compared to the control treatment: increase the myotube size compared to the control treatment
- myotube growth on addition to the combination: did not provide any increase in myotube growth

Compound: NC(=O)CC[C@H](N)C(=O)O [L-glutamine]
- myotube size compared to the control treatment: more profound growth response of myotubes
- useful inclusion (minimum amount required to produce the maximal growth response): 3 mM

Compound: CC(C)C[C@H](N)C(=O)O [L-leucine]
- myotube size compared to the control treatment: more profound growth response of myotubes
- useful inclusion (minimum amount required to produce the maximal growth response): 1 mM

Compound: NCCCC[C@H](N)C(=O)O [L-lysine]
- myotube size compared to the control treatment: increase the myotube size compared to the control treatment
- myotube growth on addition to the combination: did not provide any increase in myotube growth
